The text below walks through data of patent publication US5541194A (priority 1987, dated 1996).

Assay [1] concerns the target muscarinic receptors. The assay is described as follows: Radio ligand binding: displacement of muscarinic agonist 3H-Oxotremorine-M (3H-OXO-M) in rat cerebral cortex. Also on record: species or system Hooded Lister rats. The conditions noted are these: displacement of 2 nM 3H-OXO-M; rat cerebral cortex membranes; 37° C., 30 min; 2 mM magnesium chloride; ^+ tested as the oxalate salt, ^++ tested as the hydrochloride salt.

Assay [2] concerns the target muscarinic receptors. In kind it is binding, Hooded Lister rats. As to conditions: displacement of 0.27 nM 3H-QNB; rat cerebral cortex membranes; 37° C., 30 min; ^+ tested as the oxalate salt, ^++ tested as the hydrochloride salt.

Like-named read-outs stand apart in the source and are kept apart here.

As for `c1cc(C2CN3CCC2CC3)on1` (racemic) [Example E1, (±) 3-(1,2-Oxazol-5-yl)-1-azabicyclo[2.2.2]octane], the IC50 – broadly, the concentration that inhibits the measured activity by half – on muscarinic receptors [1] stood at 477 nM; at muscarinic receptors [2], 15500 nM.
As to `Cc1cc(C2CN3CCC2CC3)on1` (racemic) [Example E6, (±)3-(3-Methyl-1,2-oxazol-5-yl)-1-azabicyclo[2.2.2]octane], the IC50 is 395 nM on muscarinic receptors [1] and 4300 nM on muscarinic receptors [2].
As for `Cc1ncc(C2CN3CCC2CC3)o1` (racemic) [Example E7, (±) 3-(2-Methyl-1,3-oxazol-5-yl)-1-azabicyclo[2.2.2]octane], the IC50 at muscarinic receptors [1] was determined as 105 nM; at muscarinic receptors [2], 4400 nM.
For `c1cc(C2CN3CCC2CC3)co1` (racemic) [Example E10, (±) 3-(Fur-3-yl)-1-azabicyclo[2.2.2]octane] the same measures were 834 nM and 19500 nM.
Take `c1ncc(C2CN3CCC2CC3)o1` (racemic) [Example E11, (±) 3-(1,3-Oxazol-5-yl)-1-azabicyclo[2.2.2]octane]: the IC50 is 480 nM at muscarinic receptors [1] and 24000 nM at muscarinic receptors [2].
In the case of `c1ncc(C2CN3CCC2C3)o1` (racemic) [Example E12, (±) exo and endo-3-(1,3-Oxazol-5-yl)-1-azabicyclo[2.2.1]heptane], the IC50 at muscarinic receptors [1] is 150 nM; at muscarinic receptors [2] it was 29000 nM.
For `CCc1ncc(C2CN3CCC2C3)o1` (racemic) [Example E14, (±) 3-(2-Ethyl-1,3-oxazol-5-yl)-1-azabicyclo[2.2.1]heptane] the same measures were 800 nM and 9600 nM.
With `c1coc([C@@H]2CN3CC[C@@H]2C3)c1` (relative stereo) [Example E4, (±) exo-3-(Fur-2-yl)-1-azabicyclo[2.2.1]heptane], the IC50 worked out at 88 nM on muscarinic receptors [1] and 7000 nM on muscarinic receptors [2].
With `Cc1ccc([C@@H]2CN3CC[C@@H]2C3)o1` (relative stereo) [Example E5, (±) exo-3-(5-Methyl-fur-2-yl)-1-azabicyclo[2.2.1]heptane], the IC50 on muscarinic receptors [1] was determined as 115 nM; on muscarinic receptors [2], 3200 nM.
For `Cc1ncc([C@@H]2CN3CC[C@@H]2C3)o1` (relative stereo) [Example E8A, (±) exo- and endo-3-(2-Methyl-1,3-oxazol-5-yl)-1-azabicyclo[2.2.1]heptane] the same measures were 24 nM and 7500 nM.
For `Cc1cc([C@@H]2CN3CC[C@@H]2C3)on1` (relative stereo) [Example E9, (±) exo-3-(3-Methyl-1,2-oxazol-5-yl)-1-azabicyclo[2.2.1]heptane] the same measures were 102 nM and 7500 nM.
Taken in the same sequence, the figures for `c1cc([C@@H]2CN3CC[C@@H]2C3)on1` (relative stereo) [Example E13, (±) exo-3-(1,2-Oxazol-5-yl)-1-azabicyclo[2.2.1]heptane] were 173 nM and 30300 nM.
